In patent publication US20140080706A1, “METHOD OF PREPARING AN AQUEOUS TANK MIX COMPRISING A BASE” (BASF SE, priority 2011, published 2014):

Tests used:
[1] = Volatility: loss of dicamba from tank mix on petri dish; format: physicochemical; details: 70° C., 24 h
Method: The volatility was determined by analyzing the loss of material by HLPL at 70° C. after 24 h at atmospheric pressure. A sample of the aqueous tank mix (300 l/ha) was placed on the petri dish with a defined area (corresponding to a desired field application rate, such as 500 g/ha pesticide).
The application rate was 500 g/ha dicamba (free acid), 1000 g/ha potassium glyphosate, 300 g/ha Genamin® T050 (“Ad2”), 300 g/ha Preference® (“Ad3”) and optionally 250, 500 or 1000 g/ha K2CO3. Deionised water (hardness <1° dH) was used to prepare the samples. Dicamba BAPMA refers to the bis(3-aminopropyl)methylamine salt of dicamba.

pH of tank mix = format: physicochemical
Method: According to the invention, an aqueous tank mix which has a tank mix acidity of at least pH 5.0 was prepared. Preferably, the tank mix acidity corresponds to a pH of at least 6.0, better of at least 7.0, more preferably of at least 7.5, especially preferred of at least 8.0 and in particular of at least 8.5. The tank mix acidity may correspond to a pH of up to 13.0, preferably of up to 11.0 and in particular of up to 9.0. The tank mix acidity is usually determined as pH value at 20° C. without dilution of the tank mix.

[2] = test system: Soya (glycine max) Variant Deltapine; test: Biological evaluation of low phytotoxicity on glyphosate-resistant soya; format: in vivo; details: glyphosate tank mixes
Method: For the greenhouse tests, maize (cultivar Amadeo) and Chenopodium album was sown or potted in loamy sandy soil to a depth of 1-2 cm. When the plants had reached a growth height of 10 to 25 cm (around 10 to 21 days after sowing), the spray mixtures were applied to the plants in a spraying cabin.
The temperatures in the experimental period, which lasted for 3 to 4 weeks, were between 18-35° C. During this time, the experimental plants received optimum watering, with nutrients being supplied via the water used for watering.
The herbicidal activity was evaluated by awarding scores to the treated plants in comparison to the untreated control plants (Table 1 and 2). The evaluation scale ranges from 0% to 100% activity. 100% activity means the complete death at least of those parts of the plant that are above ground. Conversely, 0% activity means that there were no differences between treated and untreated plants.
The biological evaluation was made as described in Example 6. The tank mixes were applied at a application rate of 375 l/ha (125 or 250 g of glyphosate free acid/ha and 300 g of adjuvant/ha). The adjuvant Ad1 is an aqeuous solution of 200 g/l Genamin® T150 (a tallow fatty amine ethoxylate with 15 EO). The adjuvant Ad2 is Genamin® T050 (a tallow fatty amine ethoxylate with 5 EO).
Soya (glycine max) Variant Deltapine was genetically engineered to resist glyphosate.

[3] = typical value; cited from earlier work

CN(CCCN)CCCN.COc1c(Cl)ccc(Cl)c1C(=O)O [Dicamba BAPMA, bis(3-aminopropyl)methylamine salt of dicamba]
Loss of dicamba, Loss (wt %) ([1]; 500 g/ha dicamba, 1000 g/ha potassium glyphosate, 300 g/ha Ad2, 300 g/ha Ad3, deionised water): <1 wt %
pH of tank mix (pH of tank mix; Table 6 tank mixes, deionised water (hardness <1° dH)): 6.3

O=C([O-])[O-].[K+].[K+] [Example K2CO3, K2CO3]
phytotoxity effect on plants of addition of K2CO3 [2]: no phytotoxity effect

O=C(O)CNCP(=O)(O)O [glyphosate]
pKa for the amine [3]: 11.0
pKa for the carboxylic acid [3]: 2.3
pKa for the first phosphonic acid [3]: 0.8
pKa for the second phosphonic acid [3]: 6.0

COc1c(Cl)ccc(Cl)c1C(=O)O [Dicamba free acid, dicamba]
Loss of dicamba, Loss (wt %) ([1]; atmospheric pressure, application rate 500 g/ha dicamba): 80 wt %
pH of tank mix (pH of tank mix; Table 5 tank mixes, 500 g/ha dicamba, 300 l/ha): 3.0
